From patent publication US20050119301A1, “Treatment of restenosis” (priority 2001, published 2005)

How the values were obtained:
LDL = LDL antioxidation test (CuCl2-initiated LDL oxidation, lag time); format: biochemical, human; details: 10 mM; Promensil 5 mg/ml
Experimental: The LDL antioxidation test measures the ability of a compound to directly scavenge free radicals or to chelate transition metals. Thus in this series of experiments, the isoflavones and their derivatives were tested for their ability to act as free radical scavengers.
Fresh whole blood was obtained by venipuncture from healthy human volunteers under 25 years of age and supplemented immediately with EDTA (91 mg/ml) and BHT (4.4 mg/ml). LDL was prepared by step-wise ultracentrifugation within a density gradient of 1.02-1.05 g/cm^3. EDTA and BHT were present throughout all the steps of the isolation. The EDTA/BHT containing stock solution (15-30 mg LDL/ml) was stored in the dark in a nitrogen atmosphere until use, but never longer than two weeks.
Before oxidation experiments, the LDL stock solution was dialyzed in the 100-fold volume of 0.01 M phosphate buffer pH 7.4, 0.16 M NaCl, 0.1 mg/ml chloroamphenicol, which was made oxygen-free by vacuum degassing following by purging with nitrogen. The buffer was changed four times. This EDTA- and BHT-free LDL stock solution was used for all oxidation studies. The stock solution was stored not longer than 24 hr at 4° C. For performing the oxidation experiments, the EDTA- and BHT-free LDL stock solution was diluted with oxygen-saturated 0.01 M phosphate buffer pH 7.4, 0.16 M NaCl and the oxidation was initiated by the addition of a freshly prepared aqueous CuCl2 solution. The final conditions were in all experiments: room temperature, 0.25 mg LDL/ml and […] (see Esterbauer et. al., 1989)
The antioxidant activities of the following compounds were tested: daidzein ([…]), genistein ([…]), glycitein ([…]), biochanin ([…]), formononetin ([…]), Promensil™ (Novogen) (2.5 mg/ml, 5 mg/ml), Cpd. 5 (10 mM), Cpd. 7 (10 mM), Cpd. 8 (10 mM), Cpd. 12 (10 mM), Cpd. 4 (10 mM) and Cpd. 6 (10 mM). In each experiment, controls were used to compare the relative effectiveness of the Novogen isoflavone derivatives to common and well-known antioxidants such as ascorbate (2.5 mM; Vitamin C).

LDL receptor = LDL receptor expression on HepG2 cells, [125I]-LDL specific binding; format: cell-based, human; details: for LDL receptor expression, Experiment 3 / LDL receptor expression, Experiment 2 / LDL receptor expression, Experiment 1: 48 hours; for LDL receptor expression, Experiment 3: control 130 ± 18; for LDL receptor expression, Experiment 2: control 261 ± 57; for LDL receptor expression, Experiment 1: control 283 ± 32; for effect on LDL binding / LDL receptor expression over control (in words): HepG2
Experimental: Confluent human hepatoma (HepG2) cells were preincubated in the absence or presence of the test compound (Cpd. 7, Cpd. 8 and Cpd. 12 at final concentration of 50 nM, 500 nM and […]) for 48 hours, in complete DMEM medium containing 10% fetal bovine serum (FBS). Serum deprivation (i.e. 0.5% FBS) was used as a positive control to induce LDL receptor expression. Following preincubation, cells were washed before […] of [^125I]-LDL (specific activity 6.5-29.5 cpm/fmol) was added and the cells incubated at 4° C. for another 4 hours in the absence (for total binding) and presence of […] unlabelled LDL (to assess non-specific binding). Cells were then washed, lysed (0.1 M NaOH), and the radioactivity and protein content (BCA assay) of the lysate determined. The number of LDL receptors was determined from the specific binding (total binding minus non-specific binding), assuming one molecule of LDL binds per LDL receptor. Three independent experiments (each in triplicate) were performed with different batches of cells and [^125I]-LDL.
To determine the concentration of LDL needed to reach binding saturation, confluent HepG2 cells were incubated in 12-well plates with increasing concentrations of [^125I]-LDL in the presence of excess (i.e., […]) unlabelled LDL. […] Using this concentration, the time required to reach saturation binding at 4° C. was determined to be approximately 4 hours. These established optimal conditions were used for all subsequent binding assays.

E-selectin = assay: Inhibition of E-selectin expression in activated HUVEC; format: cell-based, human; details: pre-incubated 2 or 18 hours prior to TNF stimulation; Cpd. 8 especially at 10 μg/ml, Cpd. 12 especially at 1 and 10 μg/ml
Experimental: The ability of isoflavone compounds and derivatives to inhibit the expression of E-selectin was measured by the protocol set out in Litwin et al. (1997) and is incorporated herein by reference.
FIG. 18 provides comparative data on the ability of a number of isoflavone compounds to inhibit the expression of E-selectin conducted in accordance with the method of Litwin et al. The interaction of isoflavone metabolite Cpds. 8 and 12 on human umbilical vein endothelial cells, activated by […], was measured against the concentration of the compound. The cells were pre-incubated for either 2 or 18 hours prior to TNF stimulation. In comparison with a DMSO control, isoflavone Cpd. […] Isoflavone Cpd.

| SMILES | ability to scavenge free radicals (in words) (LDL) | LDL receptor expression, Experiment 3 (LDL receptor; 50 nM) | LDL receptor expression, Experiment 2 (LDL receptor; 50 nM) | LDL receptor expression, Experiment 1 (LDL receptor; 50 nM, mean ± SD, n = 3) | LDL receptor expression, Experiment 3 (LDL receptor; 500 nM) | LDL receptor expression, Experiment 2 (LDL receptor; 500 nM) | LDL receptor expression, Experiment 1 (LDL receptor; 500 nM) | effect on LDL binding / LDL receptor expression over control (in words) (LDL receptor) | inhibition of E-selectin expression (in words) (E-selectin) |
| --- | --- | --- | --- | --- | --- | --- | --- | --- | --- |
| Oc1ccc(C2COc3cc(O)ccc3C2O)cc1 (centres unmarked) [Cpd. 7] | significantly less active than Cpd. 8 and Cpd. 12 but still almost as active as ascorbate | 159 ± 30 fmol LDL receptors per mg cell protein | 239 ± 49 fmol LDL receptors per mg cell protein | 299 ± 45 fmol LDL receptors per mg cell protein | 171 ± 14 fmol LDL receptors per mg cell protein | 199 ± 58 fmol LDL receptors per mg cell protein | 281 ± 22 fmol LDL receptors per mg cell protein | increased LDL binding |  |
| Oc1ccc(C2=Cc3ccc(O)cc3OC2)cc1 [Cpd. 12] | very active scavengers | 156 ± 24 fmol LDL receptors per mg cell protein | 134 ± 52 fmol LDL receptors per mg cell protein | 319 ± 43 fmol LDL receptors per mg cell protein | 136 ± 23 fmol LDL receptors per mg cell protein | 233 ± 40 fmol LDL receptors per mg cell protein | 311 ± 35 fmol LDL receptors per mg cell protein | without consistent effect | excellent inhibition of E-selectin expression |
| Oc1ccc(C2COc3cc(O)ccc3C2O)cc1 (centres unmarked) [Cpd. 8] | very active scavengers | 152 ± 24 fmol LDL receptors per mg cell protein | 291 ± 66 fmol LDL receptors per mg cell protein | 273 ± 22 fmol LDL receptors per mg cell protein | 193 ± 18 fmol LDL receptors per mg cell protein | 291 ± 52 fmol LDL receptors per mg cell protein | 312 ± 42 fmol LDL receptors per mg cell protein | increased LDL binding | very good inhibition of E-selectin expression |
